Results as given in patent US12421276B2 (priority 2016, dated 2025).
Several values for one entry are separate records, joined by “and”; a condition that tells them apart may be missing. Equal entries are not always repeated. Where two headings read alike, the source gives them in different places.

Experiments:
[1] = Plasma stability study, human plasma; assay type: in vitro ADME; conditions: Human plasma, 1 μM, 37° C.
Summary of the method: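 Compounds (1 μM, from 0.3 mM DMSO stock) incubated at 37° C in K2 EDTA plasma, quenched at time points with acetonitrile/methanol/formic acid plus internal standard, and analysed by LC/MS/MS. Disappearance measured relative to 0-min control; t½ derived from elimination rate constant of semi-log % remaining versus time regression.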

[2] = assay type: in vivo, rat
Summary of the method: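 Male SD rats (n=4/group) dosed PO at 13.2 or 14.2 mg/kg (10 mL/kg) and housed in metabolic cages with daily urine collection. EDTA blood sampled predose to 24 h post-dose, centrifuged at 4 °C to plasma, analysed by LC-MS.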

[3] = Metabolic stability in simulated gastric fluid (SGF), pH 1.2, with or without pepsin; assay type: in vitro ADME; conditions: 5 μM, 37° C.
Summary of the method: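 Compound at 5 μM incubated at 37 °C in SGF (34.2 mM NaCl, pH 1.2) without or with 0.32% pepsin; acetonitrile/formic acid quench at time points, LC/MS/MS. Disappearance relative to 0-min; t½ from elimination rate constant of semi-log % remaining vs time.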

[4] = Metabolic stability in simulated intestinal fluid (SIF), pH 6.8, with or without pancreatin; assay type: in vitro ADME; conditions: 5 μM, 37° C.
Summary of the method: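 Compounds at 5 μM incubated at 37 °C in freshly made SIF pH 6.8 (NaOH/NaH2PO4/NaCl), with or without 1% pancreatin. Remaining parent measured by LC/MS/MS against 0-min control; t½ derived from elimination rate constant (−slope) of semi-log % remaining vs time.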

[5] = Rat, PO, 10 mg/kg equiv., n = 4, analyte: Parent (BASE STRUCTURE)
[6] = rat, dosed as prodrug, 10 mg/kg equivalent of Base Structure, analyte Parent (Base Structure), Average
[7] = rat, dosed as prodrug, 10 mg/kg equivalent of Base Structure, analyte Parent (Base Structure), Combined (average ± std. dev.)
[8] = rat, dosed as prodrug, 10 mg/kg equivalent of Base Structure, analyte Parent (Base Structure), individual animals
[9] = rat, dosed as prodrug, 10 mg/kg equivalent of Base Structure, analyte Parent (Base Structure), individual animals, 10 mg/kg
[10] = rat, dosed as prodrug, 10 mg/kg equivalent of Base Structure, analyte Prodrug, Average
[11] = rat, dosed as prodrug, 10 mg/kg equivalent of Base Structure, analyte Prodrug, Combined (average ± std. dev.)
[12] = rat, dosed as prodrug, 10 mg/kg equivalent of Base Structure, analyte Prodrug, individual animals

In the case of `CCCCCC(=O)NC(Cc1ccc(OC(=O)N2CCN(C)CC2)cc1)C(=O)NC(C(=O)NCCCCCC(N)=O)C(C)CC` (stereo not shown) [Compound A20], the “Plasma Stability Half-Life” value [1] is reported as 49.295 h, the “Plasma Stability (% Parent Remaining) 0 min” value ([1]; 0 min) is reported as 100% and the “Plasma Stability (% Parent Remaining) 60 min” value ([1]; 60 min) is reported as 83%. For the same molecule, the “Plasma Stability (% Parent Remaining) 120 min” value ([1]; 120 min) was 87%, the “Plasma Stability (% Parent Remaining) 240 min” value ([1]; 240 min) was 90% and the “AUC0-24 (ng · h/mL)” value [2, 5] was 0.8 ± 1^ ng · h/mL. For the same molecule, the “AUC0-inf” value [2, 5] was 1.61 ng·h/mL, the “Cmax” value [2, 5] was 1.7 ± 1.3 ng/mL and the “Tmax (h)” value [2, 5] was 0.3 ± 0^ h. The “half-life” value [2, 5] was 10.2 min, the “Tmax” value ([2]; Rat, PO, 10 mg/kg equiv., n = 4, analyte: Prodrug) was 0 min and the “AUC 0-inf_obs” value [2, 6] was 1.611 ng·h/mL. For the same molecule, the “AUC 0-t” value [2, 6] was 0.8309 ng·h/mL, the “AUMC 0-inf_obs” value [2, 6] was 0.6699 ng/ml * h^2 and the Cl/F_obs [2, 6] was 6.207 (mg/kg)/(ng/ml)/h. For the same molecule, the Cmax [2, 6] was 1.7125 ng/mL, the Lambda_z [2, 6] was 4.022 h⁻¹ and the “MRT 0-inf_obs” value [2, 6] was 24.95 min. The Tlag [2, 6] was 0 h, the Tmax [2, 6] was 15 min and the Vz/F_obs [2, 6] was 1.543 (mg/kg)/(ng/ml). For the same molecule, the t1/2 [2, 6] was 10.34 min, the “AUC 0-inf_obs” value [2, 7] was 1.611 ng·h/mL and the “AUC 0-t” value [2, 7] was 0.8 ± 1 ng·h/mL. For the same molecule, the “AUMC 0-inf_obs” value [2, 7] was 0.6699 ng/ml * h^2, the Cl/F_obs [2, 7] was 6.207 (mg/kg)/(ng/ml)/h and the Cmax [2, 7] was 1.7 ± 1.3 ng/mL. For the same molecule, the Lambda_z [2, 7] was 4.022 h⁻¹, the “MRT 0-inf_obs” value [2, 7] was 24.95 min and the Tlag [2, 7] was 0 ± 0 h. For the same molecule, the Tmax [2, 7] was 18 ± 0 min, the Vz/F_obs [2, 7] was 1.543 (mg/kg)/(ng/ml) and the t1/2 [2, 7] was 10.34 min. The “AUC 0-inf_obs” value [2, 8] was 1.611 ng·h/mL, the “AUMC 0-inf_obs” value [2, 8] was 0.6699 ng/ml * h^2 and the Cl/F_obs [2, 8] was 6.207 (mg/kg)/(ng/ml)/h. The Lambda_z [2, 8] was 4.022 h⁻¹, the “MRT 0-inf_obs” value [2, 8] was 24.95 min and the Tlag [2, 8] was 0 h. For the same molecule, the Tmax [2, 8] was 15 min, the Vz/F_obs [2, 8] was 1.543 (mg/kg)/(ng/ml) and the t1/2 [2, 8] was 10.34 min. For the same molecule, the “AUC 0-t” value [2, 9] was 0.08927 ng·h/mL and 1.5726 ng·h/mL, the Cmax [2, 9] was 0.765 ng/mL and 2.66 ng/mL and the “AUMC 0-inf_obs” value [2, 10] was 0 ng/ml * h^2. For the same molecule, the Cl/F_obs [2, 10] was 0 (mg/kg)/(ng/ml)/h, the Lambda_z [2, 10] was 0 h⁻¹ and the Tlag [2, 10] was 0 h. For the same molecule, the Tmax [2, 10] was 0 min, the Vz/F_obs [2, 10] was 0 (mg/kg)/(ng/ml) and the “AUMC 0-inf_obs” value [2, 11] was 0 ng/ml * h^2. The Cl/F_obs [2, 11] was 0 (mg/kg)/(ng/ml)/h, the Lambda_z [2, 11] was 0 h⁻¹ and the Tlag [2, 11] was 0 h. The Tmax [2, 11] was 0 min, the Vz/F_obs [2, 11] was 0 (mg/kg)/(ng/ml) and the “AUMC 0-inf_obs” value [2, 12] was 0 ng/ml * h^2. The Cl/F_obs [2, 12] was 0 (mg/kg)/(ng/ml)/h, the Lambda_z [2, 12] was 0 h⁻¹ and the Tlag [2, 12] was 0 h. The Tmax [2, 12] was 0 min, the Vz/F_obs [2, 12] was 0 (mg/kg)/(ng/ml) and the “SGF Stability (pH 1.2) Half-Life (min)” value ([3]; +Pepsin (0.32%)) was 84.5 min. For the same molecule, the “SGF Stability (pH 1.2) 0 min” value ([3]; +Pepsin (0.32%)) was 100%, the “SGF Stability (pH 1.2) 60 min” value ([3]; +Pepsin (0.32%)) was 57% and the “SGF Stability (pH 1.2) 120 min” value ([3]; +Pepsin (0.32%)) was 37%. For the same molecule, the “SGF Stability (pH 1.2) 240 min” value ([3]; +Pepsin (0.32%)) was 26%, the “SGF Stability (pH 1.2) Half-Life (min)” value ([3]; −Pepsin) was 116.5 min and the “SGF Stability (pH 1.2) 0 min” value ([3]; −Pepsin) was 100%. For the same molecule, the “SGF Stability (pH 1.2) 60 min” value ([3]; −Pepsin) was 70%, the “SGF Stability (pH 1.2) 120 min” value ([3]; −Pepsin) was 57% and the “SGF Stability (pH 1.2) 240 min” value ([3]; −Pepsin) was 60%. For the same molecule, the “SIF Stability (pH 6.8) Half-Life (min)” value ([4]; +Pancreatin (1%)) was 86.6 min, the “SIF Stability (pH 6.8) 0 min” value ([4]; +Pancreatin (1%)) was 100% and the “SIF Stability (pH 6.8) 60 min” value ([4]; +Pancreatin (1%)) was 62%. For the same molecule, the “SIF Stability (pH 6.8) 120 min” value ([4]; +Pancreatin (1%)) was 54%, the “SIF Stability (pH 6.8) 240 min” value ([4]; +Pancreatin (1%)) was 61% and the “SIF Stability (pH 6.8) Half-Life (min)” value ([4]; −Pancreatin) was 95.4 min. The “SIF Stability (pH 6.8) 0 min” value ([4]; −Pancreatin) was 100%, the “SIF Stability (pH 6.8) 60 min” value ([4]; −Pancreatin) was 65% and the “SIF Stability (pH 6.8) 120 min” value ([4]; −Pancreatin) was 57%. For the same molecule, the “SIF Stability (pH 6.8) 240 min” value ([4]; −Pancreatin) was 51%.
